Columns and labels:
Format in all cases: in vivo, human
[1] = tested on: Subjects Having Insomnia Disorder; assay: Example 2: subjective sleep onset latency (sSOL), sleep diary; details: 6.25 mg
Text: As used herein, the term “subjective sleep onset latency”, abbreviated as “sSOL”, means the estimated number of minutes from the time that the subject attempted to sleep until sleep onset. In some embodiments, sSOL is derived from data entered in a subject's Sleep Diary.
In some embodiments, sleep diaries were used to assess sleep parameters reported by subjects (i.e., subjective assessments) including subjective sleep onset latency (sSOL), subjective sleep efficiency (sSE), subjective WASO (sWASO), and subjective total sleep time (sTST). Subjects were instructed to complete the Sleep Diary developed based on the consensus Sleep Diary as described in Carney et al., “The consensus sleep diary: standardizing prospective sleep self-monitoring,” Sleep 2012; 35(2):287-302. In some embodiments, the Sleep Diary was used to assess the subject's global perception of quality of sleep on the previous night with the following question: “How would you rate the quality of your sleep last night?” Subjects rated the quality of their sleep on a scale from 1 to 9, with 1 being extremely poor and 9 being extremely good. In some embodiments, the Sleep Diary was used to assess subjective ratings of morning sleepiness with the following question: “How alert/sleepy do you feel this morning?” Subjects rated their sleepiness/alertness level on a Likert scale from 1 to 9, with 1 being extremely sleepy and 9 being extremely alert.
sSOL—subjective sleep onset latency: estimated minutes from the time that the subject attempted to sleep until sleep onset.
(§1) The treatment period lasted for 31 days. Subjects were randomized in a double-blind manner and received placebo, a tablet containing 5 mg of lemborexant, a tablet containing 10 mg of lemborexant, or a tablet containing 6.25 mg of zolpidem ER.
Once home, the subject ingested study drug each night prior to bedtime and completed their sleep diary within 1 hour of waketime.

[2] = tested on: Subjects Having Insomnia Disorder; assay: Example 2: Cognitive Performance Assessment Battery; details: after the first 2 nights of treatment; 3 of the 4 domains vs placebo and 5 mg, 2 of the 4 domains vs 10 mg lemborexant (FIGS. 11A-11D)
Description: FIG. 11A-FIG. 11D show the change from baseline (least squares mean) in the four domains of the Cognitive Performance Assessment Battery at Days 2/3 and Days 30/31 in patients treated with placebo, 6.25 mg of zolpidem, 5 mg of lemborexant, or 10 mg of lemborexant.
Subjects were provided with a sleep diary and trained on how to record entries. After subjects completed the sleep diary on 7 consecutive mornings, and provided that the subject was still eligible to participate in the study, they attended a second clinical meeting between 10 and 17 days before the randomization phase. […]
Within 5 minutes of the subject's mean habitual bedtime, study drug was administered and an overnight polysomnogram recording was initiated. At completion of the recording the following morning (Day 2), postural stability and cognitive performance were assessed. […] The next morning (Day 3), postural stability and cognitive performance were assessed. […]
On Day 29, subjects returned to the clinic. […] On the following morning (Day 30), postural stability and cognitive performance were assessed. […]
On the evening of Day 30, subjects returned to the clinic. […] The following morning (Day 31), postural stability and cognitive performance were assessed and a blood sample was obtained. […] An electrocardiogram was performed, and vital signs and weight were assessed. […]

[3] = tested on: Subjects Having Insomnia Disorder; assay: Example 2: treatment-emergent adverse events; details: Zolpidem ER 6.25 mg (N = 263)
Description: Between 14 and 18 days after completion of the treatment period, subjects returned to the clinic for the end of study visit. The T-BWSQ and eC-SSRS were administered and routine safety assessments were conducted.
A subject who prematurely discontinued taking study drug was to return to the clinic as soon as practicable after discontinuing study drug. If the subject discontinued due to an adverse event, the adverse event must have been followed to resolution or for 2 weeks, whichever came first. Additionally, subjects who discontinued early underwent a urine drug test.

[4] = tested on: Subjects Having Insomnia Disorder; assay: Example 2: wake after sleep onset in the second half of the night (WASO2H), polysomnography; details: Zolpidem ER 6.25 mg
Description: In some embodiments, a sleep parameter is determined objectively using polysomnography. Polysomnography is the monitoring of multiple electrophysiological parameters during sleep and generally includes measurement of EEG activity, electro-oculographic activity and electromyographic activity, as well as other measurements.
WASO2H: wake after sleep onset in the second half of the night: minutes of wake during the interval from 240 minutes after lights off until lights on.
as §1
Within 5 minutes of the subject's mean habitual bedtime, study drug was administered and an overnight polysomnogram recording was initiated. At completion of the recording the following morning (Day 2), postural stability and cognitive performance were assessed. On the Day 2 evening, subjects returned to the clinic and a blood sample was collected before administering study drug, and then study drug was administered within 5 minutes of the subject's mean habitual bedtime. Again, a polysomnogram recording was initiated. The next morning (Day 3), postural stability and cognitive performance were assessed. A blood sample was also collected.
On Day 29, subjects returned to the clinic. Study drug was administered within 5 minutes of the subject's mean habitual bedtime and a polysomnogram recording was conducted. On the following morning (Day 30), postural stability and cognitive performance were assessed. After 1.5 hours of waketime, subjects rated their morning sleepiness level.
On the evening of Day 30, subjects returned to the clinic. A pre-dose blood sample was collected and study drug was again administered within 5 minutes of the subject's mean habitual bedtime. A polysomnogram recording was initiated. The following morning (Day 31), postural stability and cognitive performance were assessed and a blood sample was obtained. The ISI, FSS, EQ-5D-3L and PGI-Insomnia were administered. Blood and urine samples were collected for routine safety assessment. An electrocardiogram was performed, and vital signs and weight were assessed. The eC-SSRS was then administered to the subject. At 1.5 hours after waketime, subjects rated their morning sleepiness level.
Another key secondary endpoint was to determine the change from baseline for mean wake after sleep onset in the second half of the night on Days 29 and 30 after administration of 5 mg or 10 mg of lemborexant compared to administration of 6.25 mg of zolpidem ER.

## Cc1ccc(-c2nc3ccc(C)cn3c2CC(=O)N(C)C)cc1 [Zolpidem ER, zolpidem, reference compound]
[1]; First 7 Nights of Treatment
  sSOL Change from Study Baseline, Mean (SD): −16.23 (29.531) minutes
  sSOL Change from Study Baseline, Median: -10.00 min
  sSOL, Mean (SD): 44.61 (27.566) minutes
  sSOL, Median: 34.29 min
[1]; Last 7 Nights of Treatment
  sSOL Change from Study Baseline, Mean (SD): −17.04 (30.683) minutes
  sSOL Change from Study Baseline, Median: -10.71 min
  sSOL, Mean (SD): 43.64 (30.649) minutes
  sSOL, Median: 37.50 min
[1]; Study Baseline
  sSOL, Mean (SD): 60.54 (36.350) minutes
  sSOL, Median: 53.21 min
[2]
  performance on Cognitive Performance Assessment Battery: significantly worse performance than placebo
[3]
  Congenital anomaly/birth defect: 0 n (%)
  Deaths: 0 n (%)
  Life threatening: 0 n (%)
  Other SAEs: 4 (1.5) n (%)
  Persistent or significant disability or incapacity: 0 n (%)
  Requires inpatient hospitalization or prolongation of existing hospitalization: 4 (1.5) n (%)
  Serious TEAEs: 4 (1.5) n (%)
  Severe TEAEs: 8 (3.0) n (%)
  TEAEs: 93 (35.4) n (%)
  TEAEs leading to study dose reduced: 0 n (%)
  TEAEs leading to study drug dose adjustment: 8 (3.0) n (%)
  TEAEs leading to study drug interrupted: 2 (0.8) n (%)
  TEAEs leading to study drug withdrawal: 7 (2.7) n (%)
  Treatment-related TEAEs: 40 (15.2) n (%)
[4]; Days 1/2
  Wake After Sleep Onset in the Second Half of the Night, Change from Study Baseline, Mean (SD): −24.64 (33.347)
  Wake After Sleep Onset in the Second Half of the Night, Change from Study Baseline, Median: −24.13
  Wake After Sleep Onset in the Second Half of the Night, Mean (SD): 53.30 (27.706)
  Wake After Sleep Onset in the Second Half of the Night, Median: 49.25
[4]; Days 29/30
  Wake After Sleep Onset in the Second Half of the Night, Change from Study Baseline, Mean (SD): −21.42 (36.257)
  Wake After Sleep Onset in the Second Half of the Night, Change from Study Baseline, Median: −19.13
  Wake After Sleep Onset in the Second Half of the Night, Mean (SD): 56.74 (31.112)
  Wake After Sleep Onset in the Second Half of the Night, Median: 51.25
